Data published in patent publication US7041687B2, “Indazole compounds useful as protein kinase inhibitors” (Vertex Pharmaceuticals Incorporated, priority 2002, dated 2006).
“And” between values parts separate entries of the source, which are not always exact repeats. Identical values can stand only once.

Assays:
Type in all cases: biochemical
[1] = biological target: AKT-3 (Homo sapiens, UniProt Q9Y243); assay: AKT-3 inhibition assay (standard coupled enzyme assay); details: 170 μM ATP, 200 μM peptide, 45 nM AKT, 30° C.
Sequence of AKT-3 (Q9Y243 whole entry): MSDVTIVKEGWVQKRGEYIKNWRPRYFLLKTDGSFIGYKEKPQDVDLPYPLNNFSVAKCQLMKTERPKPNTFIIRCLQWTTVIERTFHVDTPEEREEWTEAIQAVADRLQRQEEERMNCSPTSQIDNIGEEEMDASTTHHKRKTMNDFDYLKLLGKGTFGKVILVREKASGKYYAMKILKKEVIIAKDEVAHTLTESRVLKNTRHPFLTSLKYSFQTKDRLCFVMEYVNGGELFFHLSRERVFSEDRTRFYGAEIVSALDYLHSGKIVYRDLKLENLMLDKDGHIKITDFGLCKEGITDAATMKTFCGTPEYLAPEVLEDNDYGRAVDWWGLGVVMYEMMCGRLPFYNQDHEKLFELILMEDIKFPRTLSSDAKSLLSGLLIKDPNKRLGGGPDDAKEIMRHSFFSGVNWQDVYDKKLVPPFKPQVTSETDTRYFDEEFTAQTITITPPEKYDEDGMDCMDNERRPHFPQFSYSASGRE

[2] = biological target: T1, PDK-1 (Homo sapiens, UniProt O15530); assay: PDK-1 inhibition assay (radioactive-phosphate incorporation); details: 40 μM ATP, 65 μM PDKtide, 25 nM PDK-1, 30° C.
T1 sequence (O15530 1-556): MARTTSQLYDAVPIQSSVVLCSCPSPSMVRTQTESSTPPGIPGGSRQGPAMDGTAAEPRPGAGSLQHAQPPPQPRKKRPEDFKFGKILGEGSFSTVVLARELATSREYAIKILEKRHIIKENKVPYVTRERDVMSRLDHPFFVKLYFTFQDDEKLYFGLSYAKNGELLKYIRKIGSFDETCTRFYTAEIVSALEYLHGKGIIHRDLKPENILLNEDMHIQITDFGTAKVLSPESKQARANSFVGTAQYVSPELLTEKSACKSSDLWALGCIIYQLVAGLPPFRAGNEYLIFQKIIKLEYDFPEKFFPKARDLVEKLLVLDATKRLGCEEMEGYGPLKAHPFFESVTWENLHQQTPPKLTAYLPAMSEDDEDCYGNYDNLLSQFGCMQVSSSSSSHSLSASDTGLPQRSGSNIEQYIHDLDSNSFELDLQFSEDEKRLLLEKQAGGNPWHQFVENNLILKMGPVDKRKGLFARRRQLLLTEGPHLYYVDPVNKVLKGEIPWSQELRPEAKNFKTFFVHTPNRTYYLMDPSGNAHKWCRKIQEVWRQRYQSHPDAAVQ

[3] = biological target: PKA (Homo sapiens, UniProt P17612); assay: PKA inhibition assay (standard coupled enzyme assay); details: 50 μM ATP, 80 μM Kemptide, 18 nM PKA, 30° C.
Description: Compounds were screened for their ability to inhibit PKA using a standard coupled enzyme assay (Fox et al., Protein Sci., (1998) 7, 2249). Assays were carried out in a mixture of 100 mM HEPES 7.5, 10 mM MgCl2, 25 mM NaCl, 1 mM DTT and 3% DMSO. Final substrate concentrations in the assay were 50 μM ATP (Sigma Chemicals) and 80 μM peptide (Kemptide, American Peptide, Sunnyvale, Calif.). Assays were carried out at 30° C. and 18 nM PKA. Final concentrations of the components of the coupled enzyme system were 2.5 mM phosphoenolpyruvate, 300 μM NADH, 30 μg/ml pyruvate kinase and 10 μg/ml lactate dehydrogenase.
An assay stock buffer solution was prepared containing all of the reagents listed above, with the exception of ATP, and the test compound of interest. 55 μl of the stock solution was placed in a 96 well plate followed by addition of 2 μl of DMSO stock containing serial dilutions of the test compound (typically starting from a final concentration of 5 μM). The plate was preincubated for 10 minutes at 30° C. and the reaction initiated by addition of 5 μl of ATP (final concentration 50 μM). Initial reaction rates were determined with a Molecular Devices SpectraMax Plus plate reader over a 15 minute time course. IC50 and Ki data were calculated from non-linear regression analysis using the Prism software package (GraphPad Prism version 3.0a for Macintosh, GraphPad Software, San Diego Calif., USA).

Row | Structure (SMILES) | Ki [1] | Ki [2] | Ki [3]
1 | O=C(Nc1ccc2[nH]ncc2c1)C1(c2ccccc2)CCNCC1 [Compound I-156] | 1 to 10 µM | > 3 µM | < 1 µM
2 | COC(=O)c1ccc(-c2n[nH]c3ccc(NC(=O)C(CCN)c4ccccc4)cc23)cc1 (stereo not drawn) [Compound I-235] | 1 to 10 µM | < 1 µM | < 1 µM
3 | NCCC(C(=O)Nc1ccc2[nH]nc(NC3CCCCC3)c2c1)c1ccc(Cl)c(Cl)c1 (stereo not drawn) [Compound I-159] | 1 to 10 µM | > 3 µM | < 1 µM
4 | NC(C(=O)Nc1ccc2[nH]ncc2c1)c1ccc(Cl)c(Cl)c1 (stereo not drawn) [Compound I-54] | 1 to 10 µM | > 3 µM | < 1 µM
5 | NCCC(C(=O)Nc1ccc2[nH]ncc2c1)c1cccc(N)c1 (stereo not drawn) [Compound I-107] | 1 to 10 µM | 1 to 3 µM | < 1 µM
6 | NCCC(C(=O)Nc1ccc2[nH]nc(NC(=O)c3ccco3)c2c1)c1ccccc1 (stereo not drawn) [Compound I-1041] | 1 to 10 µM | < 1 µM | < 1 µM
7 | NCCC(C(=O)Nc1ccc2[nH]nc(-c3ccccc3)c2c1)c1ccc(Cl)c(Cl)c1 (stereo not drawn) [Compound I-119] | < 1 µM | < 1 µM | < 1 µM
8 | N#Cc1ccc(C(=O)Nc2n[nH]c3ccc(NC(=O)C(CCN)c4ccc(Cl)c(Cl)c4)cc23)cc1 (stereo not drawn) [Compound I-174] | < 1 µM | < 1 µM | < 1 µM
9 | NCCC(C(=O)Nc1ccc2[nH]ncc2c1)c1cccc(Cl)c1Cl (stereo not drawn) [Compound I-106] | < 1 µM | < 1 µM | < 1 µM
10 | CNCCC(C(=O)Nc1ccc2[nH]ncc2c1)c1ccc(Cl)c(Cl)c1 (stereo not drawn) [Compound I-153] | < 1 µM | > 3 µM | < 1 µM
11 | NCCC(C(=O)Nc1ccc2[nH]ncc2c1)c1cccc(Br)c1 (stereo not drawn) [Compound I-110] | < 1 µM | < 1 µM | < 1 µM
12 | Cc1cc(NC(=O)C(CCN)c2ccc(Cl)c(Cl)c2)cc2cn[nH]c12 (stereo not drawn) [Compound I-147] | < 1 µM | 1 to 3 µM | < 1 µM
13 | NCCC(C(=O)Nc1ccc2[nH]nc(NC(=O)c3cccnc3)c2c1)c1ccc(Cl)c(Cl)c1 (stereo not drawn) [Compound I-194] | < 1 µM | < 1 µM | < 1 µM
14 | NCCC(C(=O)Nc1ccc2[nH]nc(NC(=O)c3ccccn3)c2c1)c1ccc(Cl)c(Cl)c1 (stereo not drawn) [Compound I-195] | < 1 µM | < 1 µM | < 1 µM
15 | Cc1n[nH]c2ccc(NC(=O)C(CCN)c3ccc(Cl)cc3F)cc12 (stereo not drawn) [Compound I-132] | < 1 µM | < 1 µM | < 1 µM
16 | NCCC(C(=O)Nc1ccc2[nH]nc(NC(=O)c3ccc(Oc4ccccc4)cc3)c2c1)c1ccc(Cl)c(Cl)c1 (stereo not drawn) [Compound I-199] | < 1 µM | 1 to 3 µM | < 1 µM
17 | CCc1cccc(C(CCN)C(=O)Nc2ccc3[nH]nc(C)c3c2)c1 (stereo not drawn) [Compound I-135] | < 1 µM | > 3 µM | < 1 µM
18 | CCc1ccc(C(=O)Nc2n[nH]c3ccc(NC(=O)C(CCN)c4ccc(Cl)c(Cl)c4)cc23)cc1 (stereo not drawn) [Compound I-187] | < 1 µM | 1 to 3 µM | < 1 µM
19 | NCC(C(=O)Nc1ccc2[nH]ncc2c1)c1ccc(Cl)cc1 (stereo not drawn) [Compound I-242] | < 1 µM | < 1 µM | < 1 µM
20 | NCCC(C(=O)Nc1ccc2[nH]nc(NC(=O)c3cccc(Oc4ccccc4)c3)c2c1)c1ccc(Cl)c(Cl)c1 (stereo not drawn) [Compound I-178] | < 1 µM | > 3 µM | < 1 µM
21 | C#Cc1n[nH]c2ccc(NC(=O)C(CCN)c3ccc(Cl)c(Cl)c3)cc12 (stereo not drawn) [Compound I-124] | < 1 µM | 1 to 3 µM | < 1 µM
22 | NCCC(C(=O)Nc1ccc2[nH]nc(-c3ccc(-c4ccccc4)cc3)c2c1)c1ccccc1 (stereo not drawn) [Compound I-236] | 1 to 10 µM | < 1 µM | < 1 µM

The next lines start with the values.

Row | Ki [1] | Ki [2] | Ki [3] | Structure (SMILES)
23 | < 1 µM | < 1 µM | < 1 µM | Cc1n[nH]c2ccc(NC(=O)C(CCN)c3ccc(Cl)c(Cl)c3)cc12 (stereo not drawn) [Compound I-117]
24 | < 1 µM | < 1 µM | < 1 µM | Cc1n[nH]c2ccc(NC(=O)[C@@H](CCN)c3cccc(Cl)c3F)cc12 [Compound I-126]
25 | < 1 µM | 1 to 3 µM | < 1 µM | N#Cc1cccc(C(=O)Nc2n[nH]c3ccc(NC(=O)C(CCN)c4ccc(Cl)c(Cl)c4)cc23)c1 (stereo not drawn) [Compound I-175]
26 | < 1 µM | > 3 µM | < 1 µM | Cc1cccc(C(CCN)C(=O)Nc2ccc3[nH]nc(C)c3c2)c1 (stereo not drawn) [Compound I-131]
27 | < 1 µM | < 1 µM | < 1 µM | COc1c(C(CCN)C(=O)Nc2ccc3[nH]nc(C)c3c2)ccc(Cl)c1Cl (stereo not drawn) [Compound I-130]
28 | < 1 µM | < 1 µM | < 1 µM | NCCC(C(=O)Nc1ccc2[nH]nc(NC(=O)c3ccc(CN)cc3)c2c1)c1ccc(Cl)c(Cl)c1 (stereo not drawn) [Compound I-198]
29 | < 1 µM | > 3 µM | < 1 µM | NCCC(C(=O)Nc1ccc2[nH]nc(NC(=O)c3ccc(Cl)c(Cl)c3)c2c1)c1ccc(Cl)c(Cl)c1 (stereo not drawn) [Compound I-183]
30 | < 1 µM | 1 to 3 µM and > 3 µM | < 1 µM | Cc1n[nH]c2ccc(NC(=O)C(CN)c3ccc(Cl)c(Cl)c3)cc12 (stereo not drawn) [Compound I-233]
31 | < 1 µM | > 3 µM | 1 to 5 µM | NCCC(C(=O)Nc1ccc2[nH]nc(NC(=O)c3cc(C(F)(F)F)cc(C(F)(F)F)c3)c2c1)c1ccc(Cl)c(Cl)c1 (stereo not drawn) [Compound I-202]
32 | < 1 µM | 1 to 3 µM | < 1 µM | Cc1cccc(C(=O)Nc2n[nH]c3ccc(NC(=O)C(CCN)c4ccc(Cl)c(Cl)c4)cc23)c1 (stereo not drawn) [Compound I-185]
33 | < 1 µM | < 1 µM | < 1 µM | NCCC(C(=O)Nc1ccc2[nH]ncc2c1)c1cccc(Cl)c1 (stereo not drawn) [Compound I-100]
34 | < 1 µM | < 1 µM | < 1 µM | NCCC(C(=O)Nc1ccc2[nH]nc(NC(=O)c3ccc(Cl)cc3)c2c1)c1ccc(Cl)c(Cl)c1 (stereo not drawn) [Compound I-182]
35 | < 1 µM | > 3 µM | < 1 µM | NCCCC(C(=O)Nc1ccc2[nH]ncc2c1)c1ccc(Cl)c(Cl)c1 (stereo not drawn) [Compound I-155]
36 | < 1 µM | 1 to 3 µM | < 1 µM | NCCC(C(=O)Nc1ccc2[nH]nc(NC(=O)c3cccc(Br)c3)c2c1)c1ccc(Cl)c(Cl)c1 (stereo not drawn) [Compound I-186]
37 | < 1 µM | < 1 µM | < 1 µM | NCC(C(=O)Nc1ccc2[nH]nc(-c3ccccc3)c2c1)c1ccc(Cl)c(Cl)c1 (stereo not drawn) [Compound I-231]
38 | < 1 µM | > 3 µM | < 1 µM | NC[C@@H](C(=O)Nc1ccc2[nH]ncc2c1)c1ccc(Cl)c(Cl)c1 [Compound I-247]
39 | < 1 µM | 1 to 3 µM | < 1 µM | Cc1n[nH]c2ccc(NC(=O)C(CCN)c3cccc(Cl)n3)cc12 (stereo not drawn) [Compound I-129]
40 | < 1 µM | 1 to 3 µM | < 1 µM | NCCC(C(=O)Nc1ccc2[nH]ncc2c1)c1ccccc1 (stereo not drawn) [Compound I-98]
41 | < 1 µM | 1 to 3 µM | < 1 µM | N#Cc1ccc(Nc2n[nH]c3ccc(NC(=O)C(CCN)c4ccc(Cl)c(Cl)c4)cc23)cc1 (stereo not drawn) [Compound I-164]
42 | < 1 µM | 1 to 3 µM | < 1 µM | CCCc1ccc(C(=O)Nc2n[nH]c3ccc(NC(=O)C(CCN)c4ccc(Cl)c(Cl)c4)cc23)cc1 (stereo not drawn) [Compound I-188]
43 | < 1 µM | 1 to 3 µM | < 1 µM | CSc1cccc(C(CCN)C(=O)Nc2ccc3[nH]ncc3c2)c1 (stereo not drawn) [Compound I-108]
44 | < 1 µM | > 3 µM | < 1 µM | NCC(C(=O)Nc1ccc2[nH]ncc2c1)c1ccc(Cl)c(Cl)c1 (stereo not drawn) [Compound I-99]
45 | < 1 µM | < 1 µM | < 1 µM | NCCC(C(=O)Nc1ccc2[nH]nc(NC(=O)c3ccccc3)c2c1)c1ccc(Cl)c(Cl)c1 (stereo not drawn) [Compound I-141]
46 | < 1 µM | 1 to 3 µM | < 1 µM | CC(=O)Nc1n[nH]c2ccc(NC(=O)C(CCN)c3ccc(Cl)c(Cl)c3)cc12 (stereo not drawn) [Compound I-140]
